Measured values as given in patent US20220000403A1, “NEUROT[…] DETECTION SYSTEM AND METHOD OF DETECTING A NEUROT[…]” (Ocumove ApS, priority 2018, published 2022).

What was measured:
Type in all cases: in vivo, human
subjects with ADD = assay: Eye movement signal parameters before/after methylphenidate, ADD subjects (Example 6.6)
Description: (§1) Strain gauge sensors (SleepSense Limb Movement Sensors) from SleepSense were used as eye movement sensors. These where connected to a Digital Brain Electric Activity Mapping KT88 EEG apparatus as a recording and frequency analysis arrangement.
(§2) The subjects were instructed to keep their eyes closed, but to refrain from falling asleep.
(§3) The signal from the sensors where filtered by one of two different filters; a 2.5 Hz low pass filter with 24 dB reduction.
(§4) A signal was recorded over a period of 5 minutes. 1 minute of signal is illustrated in FIG. 3.
(§5) Eye movement signals were recorded using the methods described in example 1.
In 3 out of 4 cases, an increase in the amplitude and a decrease in the average frequency was observed.

[1] = test system: subjects with an AHDH or ADD diagnosis; assay: Maximum FFT amplitude before/after startup of methylphenidate treatment (Example 7.3); details: for decrease in eye activity (RC): no positive effect of the treatment
Description: A number of sample signals were recorded. Each sample was recorded over a period of 360 seconds. Only the middle 240 seconds are used, as the first 60 seconds and the last 60 second of the signal is discarded to avoid introducing artifacts related to the startup and termination of the test and the subject getting used to the eye sensors etc.
The signals were subjected to frequency analysis by FFT with 100 mHz solution.
Maximum amplitude of the frequency distribution (i.e. max FFT amplitude) is identified.
20 subjects with an AHDH or ADD diagnosis were evaluated with respect to effect of startup of methylphenidate treatment. A sample was recorded for each subject in accordance with example 7.2, and a maximum FFT amplitude was outputted from the frequency analysis arrangement (maximum FFT amplitude before, MAB). Thereafter, a startup dose of methylphenidate was prescribed for each subject. After ingestion, a further sample was recorded for each subject, and a maximum FFT amplitude was outputted from the frequency analysis arrangement (maximum FFT amplitude after, MAA).

subjects with ADHD = assay: Eye movement signal parameters before/after methylphenidate, ADHD subjects (Example 6.6)
Description: as §1, §2, §3, §4, §5
Data from 7 subjects with ADHD examined before treatment. Hereafter methylphenidate was administered, and after a subjective assessment of an effect thereof, the measurement was repeated. The sensors were in place during the entire test.

patient with ADHD [2] = assay: Frequency analysis (FFT) of closed-eye movement signal before/after medication, Example 5; details: one tablet of 10 mg
Description: as §1, §2, §3, §4
Using eye movement signals recorded as explained in example 1, frequency analysis was performed to determine a frequency distribution. However, only a 10 seconds period corresponding to the first 10 seconds of the latency time of example 2 was used. A Fast Fourier Transformation (FFT) based algorithm was used, with a 100 mHz resolution.
Using eye movement signals recorded as explained in example 1, frequency analysis was performed to determine a frequency distribution. A Fast Fourier Transformation (FFT) based algorithm was used, with a 100 mHz resolution.
In example 5, signals were recorded on a patient with ADHD.
On FIG. 6A is the result when the patient was in an initial, unmedicated state. […]

patient with ADHD [3] = assay: Number of large eye movements before/after medication, Example 5
Description: as §1, §2, §3, §4
A large eye movement number was established as the number of times the signals exceeded 50 μV, or moved below −50 μV. This signifies the number of large eye movements.
On FIG. 6A is the result when the patient was in an initial, unmedicated state. A second measurement was made after administering suitable ADHD-medication to the patient (one tablet of 10 mg of methylphenidate), this is shown in FIG. 6B.
Furthermore, the number of eye movements was analyzed as in example 1, before and after medication.

## COC(=O)C(c1ccccc1)C1CCCCN1 (centres unmarked) [methylphenidate]
Subjects with ADD; out of 4 ADD subjects treated with methylphenidate
  cases with an increase in the amplitude and a decrease in the average frequency: 3 cases
Subjects with ADD; subject 146/147, after treatment, before 0.031965
  DATA B Av Amp: 0.03275
Subjects with ADD; subject 146/147, after treatment, before 3
  DATA B FFT Amplitude: 6.1
Subjects with ADD; subject 146/147, after treatment, before 5.07667
  DATA B Av Fq: 4.083
Subjects with ADD; subject 152/153, after treatment, before 0.061080
  DATA B Av Amp: 0.04852
Subjects with ADD; subject 152/153, after treatment, before 3.62833
  DATA B Av Fq: 4.618
Subjects with ADD; subject 152/153, after treatment, before 5.5
  DATA B FFT Amplitude: 4.2
Subjects with ADD; subject 170/171, after treatment, before 0.030927
  DATA B Av Amp: 0.02591
Subjects with ADD; subject 170/171, after treatment, before 2.5
  DATA B FFT Amplitude: 2.6
Subjects with ADD; subject 170/171, after treatment, before 5.80555
  DATA B Av Fq: 5.523
Subjects with ADD; subject 184/185, after treatment, before 0.054841
  DATA B Av Amp: 0.05472
Subjects with ADD; subject 184/185, after treatment, before 4.42333
  DATA B Av Fq: 3.64
Subjects with ADD; subject 184/185, after treatment, before 5.0
  DATA B FFT Amplitude: 8.0
[1]; subject 143 ADHD
  Eff. M.: Evaluation of effect of methylphenidate: Good
  RC: relative change in FFT amplitude: −53
[1]; subject 143 ADHD, MAB 14.3
  MAA: Maximum FFT amplitude after: 6.7
[1]; subject 146
  Eff. M.: Evaluation of effect of methylphenidate: No
  RC: relative change in FFT amplitude: 100
[1]; subject 146, MAB 2.8
  MAA: Maximum FFT amplitude after: 5.6
[1]; subject 148 ADHD
  Eff. M.: Evaluation of effect of methylphenidate: Good
  RC: relative change in FFT amplitude: −60
[1]; subject 148 ADHD, MAB 8.7
  MAA: Maximum FFT amplitude after: 3.5
[1]; subject 152
  Eff. M.: Evaluation of effect of methylphenidate: Good
  RC: relative change in FFT amplitude: −56
[1]; subject 152, MAB 4.58
  MAA: Maximum FFT amplitude after: 2.0
[1]; subject 155
  Eff. M.: Evaluation of effect of methylphenidate: No
  RC: relative change in FFT amplitude: 17
[1]; subject 155, MAB 3.6
  MAA: Maximum FFT amplitude after: 4.2
[1]; subject 177
  decrease in eye activity (RC): below 10%
[1]; subject 177 ADHD
  Eff. M.: Evaluation of effect of methylphenidate: No
  RC: relative change in FFT amplitude: −7
[1]; subject 177 ADHD, MAB 26.7
  MAA: Maximum FFT amplitude after: 24.8
[1]; subject 179 ADHD
  Eff. M.: Evaluation of effect of methylphenidate: Good
  RC: relative change in FFT amplitude: −65
[1]; subject 179 ADHD, MAB 8.9
  MAA: Maximum FFT amplitude after: 3.1
[1]; subject 184
  Eff. M.: Evaluation of effect of methylphenidate: Good
  RC: relative change in FFT amplitude: 65
[1]; subject 184, MAB 4.8
  MAA: Maximum FFT amplitude after: 7.9
[1]; subject 187 ADHD
  Eff. M.: Evaluation of effect of methylphenidate: Good
  RC: relative change in FFT amplitude: 19
[1]; subject 187 ADHD, MAB 9.0
  MAA: Maximum FFT amplitude after: 10.7
[1]; subject 189
  Eff. M.: Evaluation of effect of methylphenidate: Good
  RC: relative change in FFT amplitude: −39
[1]; subject 189, MAB 9.0
  MAA: Maximum FFT amplitude after: 5.5
[1]; subject 192 ADHD
  Eff. M.: Evaluation of effect of methylphenidate: Good
  RC: relative change in FFT amplitude: −66
[1]; subject 192 ADHD, MAB 21.4
  MAA: Maximum FFT amplitude after: 7.3
[1]; subject 197
  Eff. M.: Evaluation of effect of methylphenidate: Good
  RC: relative change in FFT amplitude: −56
[1]; subject 197, MAB 14.2
  MAA: Maximum FFT amplitude after: 6.2
[1]; subject 202 ADHD
  Eff. M.: Evaluation of effect of methylphenidate: No
  RC: relative change in FFT amplitude: 33
[1]; subject 202 ADHD, MAB 34.4
  MAA: Maximum FFT amplitude after: 45.9
[1]; subject 204 ADHD
  Eff. M.: Evaluation of effect of methylphenidate: Good
  RC: relative change in FFT amplitude: −66
[1]; subject 204 ADHD, MAB 6.2
  MAA: Maximum FFT amplitude after: 2.1
[1]; subject 210 ADHD
  Eff. M.: Evaluation of effect of methylphenidate: No
  RC: relative change in FFT amplitude: 14
[1]; subject 210 ADHD, MAB 7.6
  MAA: Maximum FFT amplitude after: 8.7
[1]; subject 212
  Eff. M.: Evaluation of effect of methylphenidate: No
  RC: relative change in FFT amplitude: 27
[1]; subject 212, MAB 13.1
  MAA: Maximum FFT amplitude after: 16.7
[1]; subject 248 ADHD
  Eff. M.: Evaluation of effect of methylphenidate: No
  RC: relative change in FFT amplitude: 14
[1]; subject 248 ADHD, MAB 15.9
  MAA: Maximum FFT amplitude after: 18.2
[1]; subject 250
  Eff. M.: Evaluation of effect of methylphenidate: Good
  RC: relative change in FFT amplitude: −24
[1]; subject 250, MAB 15.8
  MAA: Maximum FFT amplitude after: 12.0
[1]; subject 255
  Eff. M.: Evaluation of effect of methylphenidate: Good
  RC: relative change in FFT amplitude: −30
[1]; subject 255, MAB 22.9
  MAA: Maximum FFT amplitude after: 16.0
[1]; subject 258
  Eff. M.: Evaluation of effect of methylphenidate: No
  RC: relative change in FFT amplitude: −2
  decrease in eye activity (RC): below 10%
[1]; subject 258, MAB 11.2
  MAA: Maximum FFT amplitude after: 11.0
Subjects with ADHD; of 7 subjects with ADHD, after methylphenidate
  cases with a fall in the amplitude and an increase in the average frequency: 6 cases
Subjects with ADHD; subject 143/144, after treatment, before 3.241667
  DATA B Av Fq: 4.858
Subjects with ADHD; subject 143/144, after treatment, before 15
  DATA B FFT Amplitude: 7
Subjects with ADHD; subject 143/144, after treatment, before −0.37474
  DATA B Av Amp: 0.001138
Subjects with ADHD; subject 167/168, after treatment, before 4.511667
  DATA B Av Fq: 4.647
Subjects with ADHD; subject 167/168, after treatment, before 10
  DATA B FFT Amplitude: 9.6
Subjects with ADHD; subject 167/168, after treatment, before −0.199017
  DATA B Av Amp: 0.04479
Subjects with ADHD; subject 177/178, after treatment, before 0.578600
  DATA B Av Amp: 0.5056
Subjects with ADHD; subject 177/178, after treatment, before 2.05333
  DATA B Av Fq: 2.23
Subjects with ADHD; subject 177/178, after treatment, before 28
  DATA B FFT Amplitude: 26
Subjects with ADHD; subject 179/180, after treatment, before 0.002030
  DATA B Av Amp: 0.04999
Subjects with ADHD; subject 179/180, after treatment, before 3.07500
  DATA B Av Fq: 3.695
Subjects with ADHD; subject 179/180, after treatment, before 9.5
  DATA B FFT Amplitude: 4.1
Subjects with ADHD; subject 187/188, after treatment, before 0.061771
  DATA B Av Amp: 0.09263
Subjects with ADHD; subject 187/188, after treatment, before 2.73667
  DATA B Av Fq: 2.553
Subjects with ADHD; subject 187/188, after treatment, before 9.5
  DATA B FFT Amplitude: 12
Subjects with ADHD; subject 189/190, after treatment, before 0.012759
  DATA B Av Amp: 0.007571
Subjects with ADHD; subject 189/190, after treatment, before 3.79500
  DATA B Av Fq: 3.947
Subjects with ADHD; subject 189/190, after treatment, before 8.5
  DATA B FFT Amplitude: 5.0
Subjects with ADHD; subject 192/193, after treatment, before 0.046206
  DATA B Av Amp: 0.000667
Subjects with ADHD; subject 192/193, after treatment, before 2.425000
  DATA B Av Fq: 4.838
Subjects with ADHD; subject 192/193, after treatment, before 22
  DATA B FFT Amplitude: 8.0
Patient with ADHD [2]; 10 s period, FIG. 6C vs 6D
  maximum value of frequency components after medication, reduction to: ~20%
Patient with ADHD [2]; 5 min signal, FIG. 6A vs 6B
  frequency content after medication, reduction to: ~50%
Patient with ADHD [3]; 1-60 s, signal exceeding +/− 50 μV, before 54
  Number of eye movements after medication: 60
Patient with ADHD [3]; 61-120 s, before 15
  Number of eye movements after medication: 0
Patient with ADHD [3]; 121-180 s, before 23
  Number of eye movements after medication: 2
Patient with ADHD [3]; 181-240 s, before 16
  Number of eye movements after medication: 1
Patient with ADHD [3]; 241-300 s, before 14
  Number of eye movements after medication: 2
